Experimental data published in PMC3047706 (Chemmedchem, 2010).
Counter-ions that a name gives are not always drawn.

biological target: T1, T. cruzi TryR (Trypanosoma cruzi, UniProt P28593); experiment: DTNB-coupled TryR assay, global fit of mode of inhibition; type: biochemical; conditions: not given
T1 sequence (P28593 whole entry): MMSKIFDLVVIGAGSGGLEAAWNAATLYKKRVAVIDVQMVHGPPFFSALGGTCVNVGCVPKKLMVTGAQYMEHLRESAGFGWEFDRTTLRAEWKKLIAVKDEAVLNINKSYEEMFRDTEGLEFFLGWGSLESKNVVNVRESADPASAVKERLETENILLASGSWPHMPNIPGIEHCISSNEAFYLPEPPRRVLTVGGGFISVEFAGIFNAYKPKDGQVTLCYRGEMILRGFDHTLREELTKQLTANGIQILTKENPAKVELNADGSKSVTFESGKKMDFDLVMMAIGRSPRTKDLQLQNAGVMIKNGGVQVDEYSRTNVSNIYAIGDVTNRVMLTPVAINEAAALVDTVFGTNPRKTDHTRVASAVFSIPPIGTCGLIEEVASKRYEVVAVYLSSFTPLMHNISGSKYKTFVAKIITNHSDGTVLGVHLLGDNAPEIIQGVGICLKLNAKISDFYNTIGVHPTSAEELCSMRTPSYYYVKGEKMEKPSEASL

Compound | Ki
CC(C)CCN[C@@H]1C[C@@H](c2ccc(Cl)c(Cl)c2)c2ccccc21 (relative stereo) [8ii, Trans-[3-(3,4-dichlorophenyl)indan-1-yl]-(3-methylbutyl)amine hydrochloride] | 3.5 ± 0.4 µM

biological target: T1, T. cruzi TryR; experiment: DTNB-coupled TryR microplate assay, […] nm; type: biochemical; conditions: not given

Compound | IC50
CC(C)CCN[C@@H]1C[C@@H](c2ccc(Cl)c(Cl)c2)c2ccccc21 (relative stereo) [8ii, Trans-[3-(3,4-dichlorophenyl)indan-1-yl]-(3-methylbutyl)amine hydrochloride] | 4.05 ± 0.39 µM
Clc1ccc(CN[C@@H]2C[C@@H](c3ccc(Cl)c(Cl)c3)c3ccccc32)cc1Cl (relative stereo) [8ix, Trans-[3-(3,4-dichlorophenyl)indan-1-yl]-(3,4-dichlorobenzyl)amine] | 45.9 ± 4.2 µM
Clc1ccc([C@@H]2C[C@@H](N3CCOCC3)c3ccccc32)cc1Cl (relative stereo) [8vi, Trans-4-[3-(3,4-dichlorophenyl)indan-1-yl]morpholine] | 173 ± 56 µM
Cc1ccc(CN[C@@H]2C[C@@H](c3ccc(Cl)c(Cl)c3)c3ccccc32)cc1 (relative stereo) [8x, Trans-[3-(3,4-dichlorophenyl)indan-1-yl]-(4-methylbenzyl)amine] | 13 ± 1.6 µM
COc1ccc(CN[C@@H]2C[C@@H](c3ccc(Cl)c(Cl)c3)c3ccccc32)cc1 (relative stereo) [8xi, Trans-[3-(3,4-dichlorophenyl)indan-1-yl]-(4-methoxybenzyl)amine] | 4.14 ± 0.41 µM
CN(C)c1ccc(CN[C@@H]2C[C@@H](c3ccc(Cl)c(Cl)c3)c3ccccc32)cc1 (relative stereo) [8xii, Trans-[3-(3,4-dichlorophenyl)indan-1-yl]-(4-dimethylaminobenzyl)amine] | 7.38 ± 1.21 µM
CC(=O)N[C@@H]1C[C@@H](c2ccc(Cl)c(Cl)c2)c2ccccc21 (relative stereo) [8xiv, Trans-N-[3-(3,4-dichlorophenyl)indan-1-yl]acetamide] | > 200 µM
COc1ccc2c(c1)[C@H](NCCC(C)C)C[C@H]2c1ccc(C)cc1 (relative stereo) [8xix, Trans-[3-(4-methylphenyl)-6-methoxyindan-1-yl]-(3-methylbutyl)amine] | 32.9 ± 4.3 µM
Cc1ccc(S(=O)(=O)N[C@@H]2C[C@@H](c3ccc(Cl)c(Cl)c3)c3ccccc32)cc1 (relative stereo) [8xv, Trans-N-[3-(3,4-dichlorophenyl)indan-1-yl]-4-methylbenzenesulfonamide] | > 200 µM
COc1ccc2c(c1)[C@H](NCCC(C)C)C[C@H]2c1ccc(Cl)c(Cl)c1 (relative stereo) [8xvi, Trans-[3-(3,4-dichlorophenyl)-6-methoxyindan-1-yl]-(3-methylbutyl)amine] | 2.23 ± 0.66 µM
COc1ccc2c(c1)[C@H](NCCC(C)C)C[C@H]2c1ccc(Br)c(Br)c1 (relative stereo) [8xvii, Trans-[3-(3,4-dibromophenyl)-6-methoxyindan-1-yl]-(3-methylbutyl)amine] | 3.15 ± 0.23 µM
COc1ccc2c(c1)[C@H](NCCC(C)C)C[C@H]2c1ccc(Cl)cc1 (relative stereo) [8xviii, Trans-[3-(4-chlorophenyl)-6-methoxyindan-1-yl]-(3-methylbutyl)amine] | 15.8 ± 1.6 µM
COc1ccc2c(c1)[C@@H](NCc1ccccc1)C[C@@H]2c1ccc(Cl)c(Cl)c1 (relative stereo) [8xxi, Trans-benzyl-[3-(3,4-dichlorophenyl)-6-methoxyindan-1-yl]amine] | 3.07 ± 0.45 µM
Clc1ccc(C2CC(NCc3ccccc3)c3ccccc32)cc1Cl (centres unmarked) [8vii] | 8.04 ± 0.91 µM
COc1cccc(C2CC(NCCC(C)C)c3cc(OC)ccc32)c1 (centres unmarked) [8xx] | 125 ± 17 µM

biological target: T2, human GR (Homo sapiens, UniProt P00390); experiment: DTNB-coupled GR microplate assay, single concentration in duplicate; type: biochemical; conditions: read-out: % inhibition at 25 μM
T2 sequence (P00390 44-522): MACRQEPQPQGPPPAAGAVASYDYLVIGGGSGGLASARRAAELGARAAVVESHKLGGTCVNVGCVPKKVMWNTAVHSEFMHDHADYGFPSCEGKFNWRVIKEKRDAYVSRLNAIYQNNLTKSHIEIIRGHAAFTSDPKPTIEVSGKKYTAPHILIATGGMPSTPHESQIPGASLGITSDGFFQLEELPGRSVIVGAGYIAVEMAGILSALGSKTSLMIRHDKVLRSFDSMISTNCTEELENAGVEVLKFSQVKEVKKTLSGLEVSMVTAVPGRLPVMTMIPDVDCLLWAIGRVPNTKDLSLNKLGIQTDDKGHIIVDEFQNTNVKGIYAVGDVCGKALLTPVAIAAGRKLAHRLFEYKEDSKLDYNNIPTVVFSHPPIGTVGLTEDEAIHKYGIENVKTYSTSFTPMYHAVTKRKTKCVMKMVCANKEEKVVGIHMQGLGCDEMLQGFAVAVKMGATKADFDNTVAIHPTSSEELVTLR

Compound | inhibition at 25 µM
CN[C@@H]1C[C@@H](c2ccc(Cl)c(Cl)c2)c2ccccc21 [compound 3, indatraline] | < 12%
